Series [1] in a line: Cytotoxicity assay in primary human foreskin fibroblast cells (CELLTITER-GLO). Format: cell-based. As to conditions: Table 3, CELLTITER-GLO, 7 d incubation. As for the experimental part:
Cytotoxicity Assays in Primary Human Foreskin Fibroblast Cells. Cytotoxicity was also evaluated in human foreskin fibroblast (HFF) cells as they are a highly sensitive indicator of toxicity in a standard assay with 7 d of compound exposure. A total of 4000 cells/well are seeded in 384-well plates in cell culture media containing 2% fetal bovine serum and antibiotics. Following a 24 h incubation, 5-fold compound dilutions are performed in duplicate wells directly in the plates containing monolayers of HFF cells. At 7 d following compound addition, CELLTITER-GLO® reagent is added to each well and resulting luminescence is measured on a luminometer to assess the number of viable cells in each well. Data are then used to calculate CC50 values.
In general terms: Cellular ATP, detected with luciferase, serves as a proxy for viable cell number.

Series [2] is described as follows: Cytotoxicity assay in HEK-293 cells (CELLTITER-GLO). Format: cell-based. As to conditions: human; for CC50 at 2 d: Table 3, CELLTITER-GLO, 2 d incubation; for CC50 at 48 h: Table B, parallel to HPV-11 antiviral assay. As for the experimental part:
(§1) An origin-containing low risk or high risk HPV plasmid was co-transfected with homologous E1 and E2 protein expression vectors into HEK 293 cells. At 4 h post-transfection, cells were treated with test compound dilutions and then incubated for 48 h. HPV origin plasmid replication was detected after digestion with DpnI and exonuclease III to remove unreplicated transfected plasmids. Remaining replicated DNA was quantified by quantitative real time PCR (qPCR). In a parallel experiment in uninfected cells cytotoxicity was determined by trypan blue exclusion or CELLTITER-GLO® to find the concentration that reduced viable cell number by 50% (CC50). CC50 values were determined by trypan blue exclusion or CELLTITER-GLO® and the selectivity index calculated (Selectivity index=CC50/EC50). The low risk HPV tested was HPV-11, and the high-risk HPV tested was HPV-16 and HPV-18.
Cytotoxicity Assays in HEK-293 cells. Cytotoxicity assays are performed in concurrently with every antiviral assay using the same cell line and media to ensure the same compound exposure. For the antiviral studies against HPV11 in HEK-293 cells, transfected cells are seeded in duplicate plates. Following a 2 h exposure, compound dilutions are prepared in both the antiviral plate and the duplicate cytotoxicity plate. At 48 h following compound addition, CELLTITE-GLO® (Promega) is added to each well and luminescence is determined on a luminometer. Concentrations of compounds sufficient to reduce cell viability by 50% are calculated from the experimental data (CC50 values).

A further series deals with HPV-11. Nature of the series: Low risk HPV assay: HPV origin plasmid replication in HEK 293 cells (qPCR). It counts as cell-based, human papillomavirus. As for the experimental part: as §1
A general note: In qPCR the cycle at which signal appears reflects the starting amount.

In a further series the test system is HPV-16 and HPV-18. Description: High risk HPV assay: HPV origin plasmid replication in HEK 293 cells (qPCR). It counts as cell-based, human papillomavirus. The note with it: read-out: EC50 High Risk. As for the experimental part: as §1
[3] abbreviates: primary human foreskin fibroblast (HFF) cells.
The mark [4] stands for this setting: Human papillomavirus, HEK293, Antiviral activity against HPV-11 in HEK-293 cells, read-out: EC50.
Where [5] appears, read: Human papillomavirus, HEK293, Antiviral activity against HPV-11 in HEK-293 cells, read-out: EC90.
[6] abbreviates: low risk HPV (HPV-11), HEK 293 cells, 48 h incubation, read-out: EC50 Low Risk.

Where two headings read alike, the source gives them in different places.

A word on the CC50: it is the concentration giving 50% cytotoxicity. A word on the EC50: it is the concentration needed to bring the measured effect to its halfway point. What is called EC90 is the concentration at which the effect reaches the 90% level.

In the case of `Nc1ccn(C[C@@H](CO)OCP(=O)(O)O)c(=O)n1` [Cidofovir, cidofovir, reference compound], the CC50 at 7 d in series [1] (setting [3]) was more than 300 µM. In series [2] (HEK-293 cells), this molecule had a half-maximal cytotoxic concentration (CC50) at 2 d of more than 300 µM and a CC50 at 48 h of more than 300 µM. The 50% effective concentration (EC50) in the series on HPV-11 (setting [4]) turned out to be 41.7 ± 12 µM. Besides, the EC90 in the series on HPV-11 (setting [5]) was more than 300 µM.
Consider `CCCCCCCCCCCCCCCCCCOCC(COP(=O)(O)COCCn1cnc2c(=O)[nH]c(N)nc21)OCc1ccccc1` (stereo not drawn) [ODBG-PMEG, 1-O-Octadecyl-2-O-benzyl-sn-glyceryl PMEG], for which the EC50 in the series with HPV-16 and HPV-18 (Human papillomavirus, HEK293, 48 h) lay in the range of 0.3 to 3.09 µM; in the series with HPV-11 (Human papillomavirus, HEK293, low risk HPV (HPV-11), HEK 293 cells, 48 h incubation, read-out: EC50 Low Risk) it was 0.3 to 3.09 µM.
Molecule `CCCCCCCCCCCCCCCCCCOCCOP(=O)(COCCn1cnc2c(=O)[nH]c(N)nc21)OCc1ccc(OC)c(Cl)c1` (stereo not drawn) [ODE-(3-Cl-4-OMe-Bn)-PMEG] came in with a CC50 at 7 d in series [1] (setting [3]) of 2.27 ± 0.51 µM. In series [2] (HEK-293 cells), half-maximal cytotoxicity (CC50 at 2 d) was put at 8.87 ± 1.2 µM and the midpoint of cytotoxicity, the CC50 at 48 h, lay at 8.31 ± 1.83 µM. Further, the EC50 in the series with HPV-11 (setting [4]) is 0.68 ± 0.62 µM. The 90% effect concentration (EC90) with HPV-11 (setting [5]) came out at 1.34 ± 0.78 µM.
With `CCCCCCCCCCCCCCCCCCOCCOP(=O)(COCCn1cnc2c(=O)[nH]c(N)nc21)OCc1cccc(Cl)c1` (stereo not drawn) [ODE-(3-Cl-Bn)-PMEG], in series [1] (setting [3]), the midpoint of cytotoxicity, the CC50 at 7 d, lay at 4.65 ± 1.73 µM. Also, in series [2] (HEK-293 cells), the midpoint of cytotoxicity, the CC50 at 2 d, lay at 1 ± 0.16 µM and it took 1.11 ± 0.27 µM to reach half-maximal cytotoxicity (CC50 at 48 h). Further, in the series with HPV-11 (setting [4]), the EC50 was found to be 0.22 ± 0.19 µM. Besides, in the series on HPV-11 (setting [5]), the 90% effect concentration (EC90) was more than 0.4 µM.
The corresponding values for `CCCCCCCCCCCCCCCCCCOCCOP(=O)(COCCn1cnc2c(=O)[nH]c(N)nc21)OCc1ccc(OC)c(F)c1` (stereo not drawn) [ODE-(3-F-4-OMe-Bn)-PMEG] are 1.72 ± 0.66 µM, 13.1 ± 5.17 µM, 14.2 ± 9.48 µM, 0.18 ± 0.04 µM and 0.99 ± 0.13 µM.
Taken in the same sequence, the figures for `CCCCCCCCCCCCCCCCCCOCCOP(=O)(COCCn1cnc2c(=O)[nH]c(N)nc21)OCc1cccc(F)c1` (stereo not drawn) [ODE-(3-F-Bn)-PMEG] were 6.88 ± 4.92 µM, 2.16 ± 0.36 µM, 1.74 ± 0.03 µM, 0.26 µM and 1.59 ± 0.57 µM.
The corresponding values for `CCCCCCCCCCCCCCCCCCOCCOP(=O)(COCCn1cnc2c(=O)[nH]c(N)nc21)OCc1ccc(C)cc1` (stereo not drawn) [ODE-(4-Me-Bn)-PMEG] are 6.02 ± 3.79 µM, 32 ± 8.14 µM, 23.8 ± 19.5 µM, 0.93 ± 0.91 µM and 7 ± 3.45 µM.
For the molecule `CCCCCCCCCCCCCCCCCCOCCOP(=O)(O)COCCn1cnc2c(=O)[nH]c(N)nc21` [ODE-PMEG, Octadecyloxyethyl-Phosphonomethoxyethylguanine, reference compound], the EC50 in the series with HPV-16 and HPV-18 (high risk HPV (HPV-16 and HPV-18), HEK 293 cells, 48 h incubation) is less than 0.3 µM; in the series on HPV-11 (setting [6]) it was less than 0.3 µM.
In the case of `CCOC(=O)[C@H](C)NP(=O)(COCCn1cnc2c(=O)[nH]c(N)nc21)N[C@@H](C)C(=O)OCC` [PMEG bisamidate, 9-[2-(bis-(ethyloxy-L-alaninyl)-phosphonomethoxy)ethyl]guanine], the CC50 at 7 d in series [1] (setting [3]) is more than 100 µM. In series [2] (HEK-293 cells), this molecule came in with a 50% cytotoxic concentration (CC50) at 2 d of more than 100 µM and a CC50 at 48 h of more than 100 µM. Moreover, in the series on HPV-11 (setting [4]), the half-maximal effective concentration (EC50) came out at 5.04 ± 7.01 µM. For the same molecule, in the series with HPV-11 (setting [5]), the EC90 was more than 100 µM.
For `CCOC(=O)[C@H](C)NP(=O)(COCCn1cnc2c(=O)[nH]c(N)nc21)Oc1ccccc1` (stereo partly drawn) [PMEG phenoxy amidate], in series [1] (read-out: CC50 HFF (7 d incubation)), the CC50 at 7 d is 70.9 ± 4.07 µM. The same molecule yielded a half-maximal cytotoxic concentration (CC50) at 2 d in series [2] of more than 100 µM. In series [2] (HEK-293 cells), the cytotoxic concentration (CC50) at 48 h is more than 100 µM. Moreover, in the series with HPV-11 (Human papillomavirus, HEK293), a half-maximal effect (EC50) was put at 7.56 ± 0.63 µM and the 90% effect concentration (EC90) is more than 100 µM.
For the molecule `Nc1nc2c(ncn2CCOCP(=O)(O)O)c(=O)[nH]1` [PMEG, 9-(2-phosphonylmethoxyethyl)guanine, reference compound], in the series with HPV-11 (setting [6]), the concentration giving a half-maximal response (EC50) fell in the range of 3 to 30 µM.

(Values after patent US11572377B2, “Nucleotide analogs” (The Regents of the University of California, priority 2015, dated 2023).)
